# From paper PMC8903829 (eLife, 2022)
# What was measured:
# hNaV1.6 [1] = target: T1, hNaV1.6 (Homo sapiens, UniProt Q9UQD0); experiment: Qube 384 automated patch-clamp, inactivated-state inhibition; format: cell-based; settings: for hNav1.6 current in (352)/(Vehicle), mean: Inactivated (-45mV)
# T1 construct: expression vector containing the full-length cDNA coding for specific human and mouse sodium channel α-subunit; expressed in transfected cells
# Target sequence in this assay (Q9UQD0 whole entry): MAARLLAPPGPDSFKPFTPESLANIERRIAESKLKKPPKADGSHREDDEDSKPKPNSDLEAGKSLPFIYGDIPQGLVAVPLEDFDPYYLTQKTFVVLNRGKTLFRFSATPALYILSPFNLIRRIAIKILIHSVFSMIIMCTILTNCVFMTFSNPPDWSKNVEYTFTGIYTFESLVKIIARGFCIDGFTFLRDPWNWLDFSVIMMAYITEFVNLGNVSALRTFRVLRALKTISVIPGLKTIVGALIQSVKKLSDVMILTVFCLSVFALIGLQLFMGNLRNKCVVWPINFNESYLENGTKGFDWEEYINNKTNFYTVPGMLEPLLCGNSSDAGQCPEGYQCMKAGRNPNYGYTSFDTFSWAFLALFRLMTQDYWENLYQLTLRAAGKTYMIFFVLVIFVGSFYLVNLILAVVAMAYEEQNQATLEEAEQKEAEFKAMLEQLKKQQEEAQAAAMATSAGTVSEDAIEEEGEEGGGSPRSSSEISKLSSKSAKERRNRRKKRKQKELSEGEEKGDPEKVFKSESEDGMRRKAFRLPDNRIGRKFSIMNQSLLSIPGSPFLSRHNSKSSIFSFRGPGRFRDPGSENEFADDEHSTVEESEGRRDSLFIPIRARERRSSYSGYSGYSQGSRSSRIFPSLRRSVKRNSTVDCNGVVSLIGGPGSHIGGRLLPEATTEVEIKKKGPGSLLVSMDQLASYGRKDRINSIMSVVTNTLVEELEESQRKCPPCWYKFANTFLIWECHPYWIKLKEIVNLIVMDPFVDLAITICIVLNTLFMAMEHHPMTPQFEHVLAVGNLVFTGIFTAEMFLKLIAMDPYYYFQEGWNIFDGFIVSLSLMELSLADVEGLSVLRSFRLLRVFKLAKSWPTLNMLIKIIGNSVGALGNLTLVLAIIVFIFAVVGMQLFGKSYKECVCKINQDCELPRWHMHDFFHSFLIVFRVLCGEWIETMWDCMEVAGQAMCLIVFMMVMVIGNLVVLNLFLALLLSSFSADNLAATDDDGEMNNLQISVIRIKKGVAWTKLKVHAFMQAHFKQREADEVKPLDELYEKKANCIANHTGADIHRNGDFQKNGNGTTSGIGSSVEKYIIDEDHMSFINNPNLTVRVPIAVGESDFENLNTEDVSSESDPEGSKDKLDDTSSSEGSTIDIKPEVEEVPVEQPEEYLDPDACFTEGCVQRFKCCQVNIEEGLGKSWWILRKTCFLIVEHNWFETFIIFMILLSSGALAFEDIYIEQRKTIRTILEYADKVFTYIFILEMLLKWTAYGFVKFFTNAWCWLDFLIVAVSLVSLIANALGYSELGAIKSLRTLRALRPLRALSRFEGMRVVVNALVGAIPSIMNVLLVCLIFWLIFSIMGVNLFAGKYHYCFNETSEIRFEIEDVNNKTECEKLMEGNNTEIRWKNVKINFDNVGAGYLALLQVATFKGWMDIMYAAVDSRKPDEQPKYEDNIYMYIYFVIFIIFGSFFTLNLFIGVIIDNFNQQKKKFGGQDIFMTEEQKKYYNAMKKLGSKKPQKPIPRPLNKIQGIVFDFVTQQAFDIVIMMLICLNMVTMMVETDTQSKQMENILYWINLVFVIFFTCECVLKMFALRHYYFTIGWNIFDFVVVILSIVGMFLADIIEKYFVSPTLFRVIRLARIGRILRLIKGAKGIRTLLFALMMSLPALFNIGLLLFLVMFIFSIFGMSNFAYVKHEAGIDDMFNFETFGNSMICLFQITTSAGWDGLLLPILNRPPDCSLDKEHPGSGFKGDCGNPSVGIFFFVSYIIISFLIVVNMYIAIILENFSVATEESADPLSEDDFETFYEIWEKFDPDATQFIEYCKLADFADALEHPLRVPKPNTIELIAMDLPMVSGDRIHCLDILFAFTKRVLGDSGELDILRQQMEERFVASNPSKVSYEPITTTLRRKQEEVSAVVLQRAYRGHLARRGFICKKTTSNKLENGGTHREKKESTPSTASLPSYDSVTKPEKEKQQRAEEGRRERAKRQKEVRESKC
# [2] = design: method as in Beatch et al., 2020; settings: humans; ref Beatch et al., 2020; cited from earlier work
# hNaV1.6 [3] = target: T1, hNaV1.6; experiment: V0.5 assay (holding potential -62 mV); format: cell-based; settings: V0.5 assay -62 mV
# Target sequence in this assay (Q9UQD0 whole entry): as above
# Target sequence in this assay (Q92913 1-192 isoform Q92913-2 partner): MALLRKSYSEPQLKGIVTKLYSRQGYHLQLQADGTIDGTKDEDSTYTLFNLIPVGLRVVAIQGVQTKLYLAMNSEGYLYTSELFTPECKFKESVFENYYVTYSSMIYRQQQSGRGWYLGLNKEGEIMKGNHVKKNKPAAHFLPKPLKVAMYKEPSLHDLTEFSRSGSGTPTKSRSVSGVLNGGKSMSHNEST
# hNaV1.6 I1327V = target: T2, hNaV1.6 I1327V (Homo sapiens, UniProt Q9UQD0, I1327V); experiment: Automated patch-clamp, patient-identified variant in Expi293F cells; format: cell-based
# T2 construct: expression vector containing the full-length cDNA coding for specific human and mouse sodium channel α-subunit; expressed in transfected cells; host or cells: Expi293F (transient, tetracycline-induced, pcDNA4/TO)
# T2 sequence (Q9UQD0 whole entry I1327V): as the sequence (Q9UQD0 whole entry) above, with I1327V counted along it
# Procedure: (§1) For studies of mutant channels, cDNA plasmids in pcDNA4/TO Mammalian Expression Vector were transiently transfected into Expi293F cells stably expressing human FHF2b and human SCN1B subunit (polyclonal) background using ExpiFectamine 293 Transfection Kits (Gibco,Thermo Fisher Scientific CAT #: A14524). Induction was achieved using Tetracycline (Sigma Aldrich). Transfected cells were used in automated patch-clamp experiments 24 hours postinduction.
# (§2) Inorm(CPD)=(ICPD−Icontrol)/(ITTX−Icontrol).
# hNaV1.6 R1617Q = target: T3, hNaV1.6 R1617Q (Homo sapiens, UniProt Q9UQD0, R1617Q); experiment: as above; format: cell-based
# T3 construct: expression vector containing the full-length cDNA coding for specific human and mouse sodium channel α-subunit; expressed in transfected cells; host or cells: Expi293F (transient, tetracycline-induced, pcDNA4/TO)
# T3 sequence (Q9UQD0 whole entry R1617Q): as the sequence (Q9UQD0 whole entry) above, with R1617Q counted along it
# Procedure: as §1, §2
# hNaV1.6 R850Q = target: T4, hNaV1.6 R850Q (Homo sapiens, UniProt Q9UQD0, R850Q); experiment: as above; format: cell-based
# T4 construct: expression vector containing the full-length cDNA coding for specific human and mouse sodium channel α-subunit; expressed in transfected cells; host or cells: Expi293F (transient, tetracycline-induced, pcDNA4/TO)
# T4 sequence (Q9UQD0 whole entry R850Q): as the sequence (Q9UQD0 whole entry) above, with R850Q counted along it
# Procedure: as §1, §2
# hNaV1.6 T767I = target: T5, hNaV1.6 T767I (Homo sapiens, UniProt Q9UQD0, T767I); experiment: as above; format: cell-based
# T5 construct: expression vector containing the full-length cDNA coding for specific human and mouse sodium channel α-subunit; expressed in transfected cells; host or cells: Expi293F (transient, tetracycline-induced, pcDNA4/TO)
# T5 sequence (Q9UQD0 whole entry T767I): as the sequence (Q9UQD0 whole entry) above, with T767I counted along it
# Procedure: as §1, §2
smiles,measurement,setting,value
Cc1cc(S(=O)(=O)Nc2cscn2)c(F)cc1N(C)[C@H]1CCN(Cc2ccccc2)C1 [NBI-921352],IC50,hNaV1.6 [1],51 nM
same,"hNav1.6 current in (352)/(Vehicle), mean",hNaV1.6 [1]; -5 Log M,0.96
same,"hNav1.6 current in (352)/(Vehicle), mean",hNaV1.6 [1]; -5.47716 Log M,0.91
same,"hNav1.6 current in (352)/(Vehicle), mean",hNaV1.6 [1]; -5.95429 Log M,0.87
same,"hNav1.6 current in (352)/(Vehicle), mean",hNaV1.6 [1]; -6.47756 Log M,0.83
same,"hNav1.6 current in (352)/(Vehicle), mean",hNaV1.6 [1]; -6.91009 Log M,0.68
same,"hNav1.6 current in (352)/(Vehicle), mean",hNaV1.6 [1]; -6.95468 Log M,0.66
same,"hNav1.6 current in (352)/(Vehicle), mean",hNaV1.6 [1]; -7.38722 Log M,0.57
same,"hNav1.6 current in (352)/(Vehicle), mean",hNaV1.6 [1]; -7.4318 Log M,0.52
same,"hNav1.6 current in (352)/(Vehicle), mean",hNaV1.6 [1]; -7.85387 Log M,0.25
same,"hNav1.6 current in (352)/(Vehicle), mean",hNaV1.6 [1]; -8.30103 Log M,0.16
same,"hNav1.6 current in (352)/(Vehicle), mean",hNaV1.6 [1]; -8.39794 Log M,0.12
same,"hNav1.6 current in (352)/(Vehicle), mean",hNaV1.6 [1]; -9.34679 Log M,0.01
same,half-life of elimination,[2],approximately 8.5 hr
same,"Fraction of hNav1.6 current blocked, mean",hNaV1.6 [3]; 0.0046 µM,-0.01128
same,"Fraction of hNav1.6 current blocked, mean",hNaV1.6 [3]; 0.0137 µM,0.1547
same,"Fraction of hNav1.6 current blocked, mean",hNaV1.6 [3]; 0.0412 µM,0.4966
same,"Fraction of hNav1.6 current blocked, mean",hNaV1.6 [3]; 0.123 µM,0.6688
same,"Fraction of hNav1.6 current blocked, mean",hNaV1.6 [3]; 0.37 µM,0.8319
same,"Fraction of hNav1.6 current blocked, mean",hNaV1.6 [3]; 1.11 µM,0.9499
same,"Fraction of hNav1.6 current blocked, mean",hNaV1.6 [3]; 3.33 µM,0.9695
same,"Fraction of hNav1.6 current blocked, mean",hNaV1.6 [3]; 10 µM,0.9977
same,IC50,hNaV1.6 I1327V,35 nM
same,"h1.6-I1327V 145756, Mean",hNaV1.6 I1327V; -5 LogM,0.91
same,"h1.6-I1327V 145756, Mean",hNaV1.6 I1327V; -5.47716 LogM,0.88
same,"h1.6-I1327V 145756, Mean",hNaV1.6 I1327V; -5.95429 LogM,0.9
same,"h1.6-I1327V 145756, Mean",hNaV1.6 I1327V; -6.4318 LogM,0.82
same,"h1.6-I1327V 145756, Mean",hNaV1.6 I1327V; -6.91009 LogM,0.67
same,"h1.6-I1327V 145756, Mean",hNaV1.6 I1327V; -7.38722 LogM,0.56
same,"h1.6-I1327V 145756, Mean",hNaV1.6 I1327V; -7.85387 LogM,0.29
same,"h1.6-I1327V 145756, Mean",hNaV1.6 I1327V; -8.33 LogM,0.13
same,"h1.6-R1617Q 145756, Mean",hNaV1.6 R1617Q; -5 LogM,0.85
same,"h1.6-R1617Q 145756, Mean",hNaV1.6 R1617Q; -6 LogM,0.64
same,"h1.6-R1617Q 145756, Mean",hNaV1.6 R1617Q; -7 LogM,0.24
same,"h1.6-R1617Q 145756, Mean",hNaV1.6 R1617Q; -8 LogM,0.07
same,IC50,hNaV1.6 R850Q,21 nM
same,"h1.6-R850Q 145756, Mean",hNaV1.6 R850Q; -5 LogM,0.91
same,"h1.6-R850Q 145756, Mean",hNaV1.6 R850Q; -5.47716 LogM,0.88
same,"h1.6-R850Q 145756, Mean",hNaV1.6 R850Q; -5.95429 LogM,0.86
same,"h1.6-R850Q 145756, Mean",hNaV1.6 R850Q; -6.4318 LogM,0.83
same,"h1.6-R850Q 145756, Mean",hNaV1.6 R850Q; -6.91009 LogM,0.79
same,"h1.6-R850Q 145756, Mean",hNaV1.6 R850Q; -7.38722 LogM,0.58
same,"h1.6-R850Q 145756, Mean",hNaV1.6 R850Q; -7.85387 LogM,0.43
same,"h1.6-R850Q 145756, Mean",hNaV1.6 R850Q; -8.33 LogM,0.13
same,IC50,hNaV1.6 T767I,31 nM
same,"h1.6-T767I 145756, Mean",hNaV1.6 T767I; -5 LogM,0.91
same,"h1.6-T767I 145756, Mean",hNaV1.6 T767I; -5.47716 LogM,0.92
same,"h1.6-T767I 145756, Mean",hNaV1.6 T767I; -5.95429 LogM,0.86
same,"h1.6-T767I 145756, Mean",hNaV1.6 T767I; -6.4318 LogM,0.86
same,"h1.6-T767I 145756, Mean",hNaV1.6 T767I; -6.91009 LogM,0.75
same,"h1.6-T767I 145756, Mean",hNaV1.6 T767I; -7.38722 LogM,0.58
same,"h1.6-T767I 145756, Mean",hNaV1.6 T767I; -7.85387 LogM,0.19
